Entries after “also recorded” stand apart in the source; their conditions may differ. Bounds are passed on as bounds.

One data set deals with NCI-H460 cells. Description: MTT assay, cell growth inhibition, NCI-H460. Type of data set: cell-based. Conditions: Homo sapiens, 72 h, three independent experiments. Here is the method: (§1) A series of 3-aryl-naphtho[2,3-d]isoxazole-4,9-diones were synthesized (Scheme 1, Figure 1) and their growth inhibition activity was tested in vitro on human non-small cell lung carcinoma NCI-H460, colorectal carcinoma DLD1 and their corresponding MDR cells (NCI-H460/R and DLD1-TxR, respectively), as well as normal embryonic lung fibroblasts MRC-5. The differences in cell growth inhibition between cancer and normal cells obtained by the MTT assay after 72 h treatment are presented in Table 1. The effect of compounds is presented as IC50 values that correspond to the 50% of cell growth inhibition.
(§2) Cell viability was assessed by the MTT assay (AppliChem GmbH, Darmstadt, Germany). Cells grown in 25 cm^2 tissue flasks were trypsinized and 1000 cells/well were seeded into flat-bottomed 96-well tissue culture plates and incubated overnight. Subsequently, the cells were treated with increasing concentrations of Hsp90 inhibitors for 72 h: compound 3 (0.1–2.5 µM), compound 4 (0.25–5 µM), compound 5 (0.5–25 µM), compound 6 (50–1000 nM), compound 7 (10–250 nM), compound 8 (0.25–5 µM), compound 9 (10–250 nM), compound 10 (0.5–25 µM), compound 13 (0.5–10 µM), compound 14 (1–25 µM), and compound 15 (10–250 nM). […] After treatment, MTT was added to each well in a final concentration of 0.2 mg/mL for 4 h. Formazan product was dissolved in 200 µl of DMSO, and the absorbance was measured at 540 nm using an automatic LKB 5060-006 Micro Plate Reader (Vienna, Austria). IC50 value was defined as a concentration of the drug that inhibited cell growth by 50% and was calculated by nonlinear regression analysis using GraphPad Prism 6.0 for Windows (La Jolla, CA, USA). Relative selectivity towards cancer cells was calculated as a relation between IC50 value obtained in MRC-5 cells and an average IC50 value from four tested cancer cell lines.
A general note: Formazan colour is commonly taken as a measure of viable cells.

Data set [1] relates to NCI-H460/R cells. Put plainly: MTT assay, cell growth inhibition, NCI-H460/R (MDR). Format: cell-based, human. Particulars: for Efficacy in MDR NCI-H460/R cells compared with sensitive NCI-H460: 72 h; for IC50: Homo sapiens, NCI-H460, 72 h, MDR cells. Here is the method:
as §1
(§3) Human colorectal carcinoma (DLD1), non-small cell lung carcinoma (NCI-H460), and normal embryonic lung fibroblast (MRC-5) cell lines were purchased from the American Type Culture Collection, Rockville, MD. P-gp overexpressing multidrug resistant DLD1-TxR cells were selected by continuous exposure to stepwise increasing concentrations of paclitaxel from DLD1 cells, while NCI-H460/R cells were selected from NCI-H460 cells after DOX selective pressure. MDR cancer cell lines, DLD1-TxR and NCI-H460/R, and their sensitive counterparts were maintained in RPMI 1640 medium supplemented with 10% FBS, 2 mM L-glutamine, and 10,000 U/mL penicillin, 10 mg/mL streptomycin, 25 mg/mL amphotericin B solutions. MRC-5 cells were cultured in DMEM supplemented with 10% FBS, 4 g/L glucose, 2 mM L-glutamine and 5000 U/mL penicillin, 5 mg/mL streptomycin solution. All cell lines were sub-cultured at 72 h intervals using 0.25% trypsin/EDTA and seeded into a fresh medium at 8000 cells/cm^2. All cell lines were maintained at 37 °C in a humidified 5% CO2 atmosphere.
as §2

The test system of data set [2] is NCI-H460, NCI-H460/R, DLD1, DLD1-TxR cells. Put plainly: MTT assay, grouping of inhibitors by IC50 over the cancer cell lines. Format: cell-based. Conditions: Homo sapiens, Figure 2b, read-out: IC50 values (grouping for Pearson correlation). As to the method: When the IC50 values obtained by the MTT assay were compared to Hsp90 affinity binding IC50 values (Table 1), a positive Pearson correlation (r > 0.5) was found for all cancer cell lines (Figure 2b).
as §2

In the next data set the test system is MRC-5 cells. Put plainly: MTT assay, normal embryonic lung fibroblasts MRC-5. Format: cell-based, human. Conditions: for IC50: Homo sapiens, MRC5, MTT, 72 h, normal fibroblasts, read-out: Cell growth inhibition IC50, MRC-5; for Relative Selectivity: IC50 in MRC-5 cells / average IC50 of four cancer cell lines. As to the method: as §1, §2
The test system of another data set is DLD1-TxR cells. Put plainly: MTT assay, cell growth inhibition, DLD1-TxR (MDR). Particulars: 72 h; for IC50: Homo sapiens, MDR cells. Type of data set: cell-based, human. As to the method:
as §1, §3, §2

A further data set deals with Hsp90. Set-up: method as in PMID 22538015. Particulars: read-out: Hsp90 Affinity binding; cited from earlier work.
Another data set relates to DLD1 cells. Put plainly: MTT assay, cell growth inhibition, DLD1. Type of data set: cell-based. Conditions: Homo sapiens, DLD-1, 72 h. Here is the method: as §1, §2
The next data set concerns the target P-gp (Homo sapiens, UniProt P08183). Put plainly: Rhodamine 123 accumulation assay (P-gp activity, flow cytometry). Type of data set: cell-based. Set-up: P-gp overexpressing multidrug resistant DLD1-TxR cells were selected by continuous exposure to stepwise increasing concentrations of paclitaxel from DLD1 cells; endogenous in cells; host or cells: NCI-H460/R and DLD1-TxR (drug-selected MDR human cancer cells). Particulars: 30 min, Figure 3a; for P-gp activity / Rho 123 accumulation: MDR NCI-H460/R and DLD1-TxR cells, one concentration per compound (100 nM-10 µM). As to the method:
To study the effect of Hsp90 inhibitors on P-gp activity in MDR cancer cells, intracellular accumulation of the P-gp substrate rhodamine 123 (Rho 123) was analyzed by flow cytometry after 30 min treatment (Figure 3a). A well-known inhibitor of P-gp activity, tariquidar (TQ), was included as a positive control.
The accumulation of Rho 123, a fluorescent P-gp substrate, was measured by flow cytometry. The intensity of the fluorescence is proportional to Rho 123 accumulation in the cell. All cell lines were seeded in adherent 6-well plates and grown overnight. DLD1-TxR and NCI-H460/R cells were treated for 30 min with the following concentrations of Hsp90 inhibitors: 500 nM compound 3, 1 µM compound 4, 10 µM compound 5, 500 nM compound 6, 500 nM compound 7, 1 µM compound 8, 500 nM compound 9, 1 µM compound 10, 1 µM compound 13, 10 µM compound 14, 100 nM compound 15. TQ (10 nM) was used as a positive control for Rho 123 accumulation. Rho 123 (5 μM) was simultaneously added with the investigated compounds and the cells were incubated at 37 °C in 5% CO2 for 30 min. The cells were then trypsinized, pelleted by centrifugation, washed with PBS and placed in ice-cold PBS. The samples were kept on ice in the dark until the analysis on CyFlow Space Partec flow cytometer (Sysmex Partec GmbH, Görlitz, Germany). The fluorescence of Rho 123 was detected on fluorescence channel 1 (FL1-H) at 530 nm. A minimum of 10,000 events were collected for each sample and the obtained results were analyzed using Summit software.
In general terms: In flow cytometry, cells or beads pass a laser one at a time.

The test system of data set [3] is NCI-H460/R cells. Put plainly: Combined treatment of compound 5 with DOX, MTT, median effect analysis. Type of data set: cell-based, human. Conditions: Homo sapiens, NCI-H460, 72 h, DOX alone, 72 h. Here is the method: The combined effects of compound 5 with DOX as well as with PTX were studied in NCI-H460/R and DLD1-TxR cells, respectively, by MTT assay. In simultaneous treatments that lasted 72 h in NCI-H460/R cells, three concentrations of compound 5 (2.5, 5, and 10 µM) were combined with increasing concentrations of DOX (250, 500 and 1000 nM), while in DLD1-TxR cells different concentrations of compound 5 (1, 2.5, and 5 µM) were combined with increasing concentrations of PTX (100, 250 and 500 nM). The nature of the interaction between Hsp90 inhibitors and DOX/PTX was analyzed with CalcuSyn software v1.1 (Biosoft, Cambridge, UK) that uses the Combination Index method based on the multiple drug effect equation [54]. Three data points were used for each single drug in each experiment. The non-constant ratio combination was chosen to assess the effect of both drugs in combination. The results are presented in a fraction-affected CI graph. Values of CI < 1 point to a pronounced additive effect or synergism (the smaller value, the greater the degree of synergy). A value of CI = 1 indicates an additive effect, while values of CI > 1 point to an antagonistic effect.

The test system of another data set is P-gp expression. Put plainly: Flow cytometric analysis of P-gp expression. Type of data set: cell-based, human. Conditions: 72 h; 5 µM 5, 200 nM 7, 100 nM 9, 10 nM TQ, 50 nM DOX, 50 nM PTX. As to the method:
P-glycoprotein expression level in NCI-H460, NCI-H460/R, DLD1, and DLD1-TxR and cells was measured by flow cytometry. All cell lines were seeded in adherent 6-well plates and treated with Hsp90 inhibitors for 72 h at the following concentrations: 5 µM compound 5, 200 nM compound 7, 100 nM compound 9 (NCI-H460 and DLD1), and 10 µM compound 5, 500 nM compound 7, 500 nM compound 9 (NCI-H460/R and DLD1-TxR). Cells were also treated with 10 nM TQ, a non-competitive P-gp inhibitor, which served as a positive control. In addition, sensitive cells (NCI-H460 and DLD1) were treated with 50 nM DOX and 50 nM PTX that served as positive controls for the induction of P-gp expression. Then, cells were collected by trypsinization, washed with PBS, and directly immunostained by FITC-conjugated anti-P-gp antibody according to the manufacturer’s protocol. The samples were kept in the dark until the analysis on CyFlow Space Partec flow cytometer (Sysmex Partec GmbH, Görlitz, Germany). The fluorescence of FITC-conjugated anti-P-gp was detected on fluorescence channel 1 (FL1-H) at 530 nm. A minimum of 10,000 events were collected for each sample (the gate excluded cell debris and dead cells) and the obtained results were analyzed with Summit software v4.3 (Dako Colorado Inc., Fort Collins, CO, USA).

Sequence of P-gp (P08183 whole entry): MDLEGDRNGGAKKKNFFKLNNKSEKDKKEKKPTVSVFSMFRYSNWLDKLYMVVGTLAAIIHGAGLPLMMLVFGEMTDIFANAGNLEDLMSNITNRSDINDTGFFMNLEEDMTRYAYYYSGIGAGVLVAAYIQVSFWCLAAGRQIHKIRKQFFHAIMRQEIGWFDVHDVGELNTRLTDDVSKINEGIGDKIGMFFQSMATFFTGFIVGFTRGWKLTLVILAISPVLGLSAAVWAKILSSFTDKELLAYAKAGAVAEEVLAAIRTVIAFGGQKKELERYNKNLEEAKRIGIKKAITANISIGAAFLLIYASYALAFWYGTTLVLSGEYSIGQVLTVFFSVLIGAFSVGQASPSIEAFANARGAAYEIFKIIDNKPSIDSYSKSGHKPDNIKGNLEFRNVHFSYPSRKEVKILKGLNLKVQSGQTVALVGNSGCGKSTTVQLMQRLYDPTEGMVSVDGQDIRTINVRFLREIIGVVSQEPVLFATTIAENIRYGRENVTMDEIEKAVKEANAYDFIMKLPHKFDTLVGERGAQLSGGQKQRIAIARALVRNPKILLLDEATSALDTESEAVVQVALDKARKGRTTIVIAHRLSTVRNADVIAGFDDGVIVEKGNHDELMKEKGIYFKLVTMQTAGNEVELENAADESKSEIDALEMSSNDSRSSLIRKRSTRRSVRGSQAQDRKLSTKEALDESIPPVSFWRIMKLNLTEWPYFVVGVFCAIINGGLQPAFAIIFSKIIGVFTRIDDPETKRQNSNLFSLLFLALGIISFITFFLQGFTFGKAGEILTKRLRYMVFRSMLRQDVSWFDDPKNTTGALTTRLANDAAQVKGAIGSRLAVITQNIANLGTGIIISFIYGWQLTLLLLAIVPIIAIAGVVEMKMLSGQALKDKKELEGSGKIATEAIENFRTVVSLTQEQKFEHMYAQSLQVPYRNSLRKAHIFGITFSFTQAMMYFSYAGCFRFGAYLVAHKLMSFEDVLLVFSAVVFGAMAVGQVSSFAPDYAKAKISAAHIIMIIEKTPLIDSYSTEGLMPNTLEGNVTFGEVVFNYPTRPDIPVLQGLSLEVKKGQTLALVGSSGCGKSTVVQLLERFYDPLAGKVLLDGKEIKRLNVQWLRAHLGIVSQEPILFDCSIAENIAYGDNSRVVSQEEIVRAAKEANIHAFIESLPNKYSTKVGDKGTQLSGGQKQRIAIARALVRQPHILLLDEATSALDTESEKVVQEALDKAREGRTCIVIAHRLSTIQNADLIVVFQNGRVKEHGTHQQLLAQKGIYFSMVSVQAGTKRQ

Regarding `O=C1c2ccccc2C(=O)c2c(-c3ccccn3)noc21` [Compound 10], the IC50 was 1270 ± 14 nM in the data set with NCI-H460 cells; 1375 ± 12 nM in the data set on NCI-H460/R cells [1]; at least 1000 nM in data set [2]; 257 ± 4 nM with MRC-5 cells; 1790 ± 36 nM in the data set with DLD1-TxR cells; 1060 nM in the data set on Hsp90. Further, in the data set on DLD1 cells, the IC50 amounted to 2640 ± 35 nM. Besides, in the data set on NCI-H460/R cells [1], the “Efficacy in MDR NCI-H460/R cells compared with sensitive NCI-H460” value (from here on “Efficacy … compared with sensitive NCI-H460”) is “overcame resistance”. In the data set with DLD1-TxR cells, the “Efficacy in MDR DLD1-TxR cells compared with sensitive DLD1” value (“Efficacy … compared with sensitive DLD1” below) is reported as “collateral sensitivity”. Besides, the “P-gp activity / Rho 123 accumulation” value on P-gp is given as “reduction in activity”.

On to `CC(=O)Oc1cccc2c1C(=O)c1c(-c3ccncc3)noc1C2=O` [Compound 15], for which the IC50 with NCI-H460 cells was 52 ± 2 nM; in the data set on NCI-H460/R cells [1] it was 39 ± 1 nM; in data set [2] it was under 1000 nM; with MRC-5 cells, 250 ± 14 nM; with DLD1-TxR cells it was 193 ± 7 nM; with Hsp90, 84 nM. Further, the IC50 in the data set with DLD1 cells is 44 ± 1 nM. The “Efficacy … compared with sensitive NCI-H460” value in the data set with NCI-H460/R cells [1] is listed as “maintained”. Besides, the “Relative Selectivity” value in the data set with MRC-5 cells is given as 3.05. Also, the “Efficacy … compared with sensitive DLD1” value in the data set with DLD1-TxR cells is listed as “lower”. Further, the “P-gp activity / Rho 123 accumulation in DLD1-TxR” value at P-gp (DLD1-TxR cells) is “maintained a certain activity”.

For the compound `COc1cccc2c1C(=O)c1c(O)c3c(c(O)c1C2=O)C[C@@](O)(C(=O)CO)C[C@@H]3O[C@H]1C[C@H](N)[C@H](O)[C@H](C)O1` [DOX, doxorubicin], the IC50 in the data set on NCI-H460/R cells [3] came to 2270 ± 42.4 nM. In the data set with P-gp expression, the “Change in P-gp expression, DLD1” value was “significantly increased P-gp expression” and the “Change in P-gp expression, NCI-H460” value was “significantly increased P-gp expression”.

`O=C1c2ccccc2C(=O)c2c(-c3cc[n+](Cc4ccccc4)cc3)noc21` [Compound 8]: the IC50 was 159 ± 3 nM in the data set with NCI-H460 cells; 351 ± 5 nM in the data set on NCI-H460/R cells [1]; at least 1000 nM in data set [2]; 11000 ± 366 nM in the data set on MRC-5 cells; 3360 ± 49 nM in the data set on DLD1-TxR cells; 34 nM in the data set on Hsp90. This compound returned an IC50 in the data set on DLD1 cells of 251 ± 3 nM. Besides, the “Efficacy … compared with sensitive NCI-H460” value in the data set on NCI-H460/R cells [1] was “compromised in the presence of the MDR phenotype”. Besides, in the data set with MRC-5 cells, the “Relative Selectivity” value turned out to be 10.69. Further, in the data set on DLD1-TxR cells, the “Efficacy … compared with sensitive DLD1” value was “compromised in the presence of the MDR phenotype”. For the same compound, the “P-gp activity / Rho 123 accumulation” value at P-gp is recorded as “detrimental; also recorded: modest activity”.
